Measured values from PubChem BioAssay (NCI).
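GI50 marks 50% less growth. The concentration for full growth arrest is given as TGI.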

Tests used:
Test in all cases: growth of human tumour cells (NCI), 384-well format
[1] = test system: ACHN renal
[2] = test system: CCRF-CEM leukemia
[3] = test system: DU-145 prostate
[4] = test system: HCC-2998 colon
[5] = test system: HS 578T breast
[6] = test system: K-562 leukemia
[7] = test system: NCI-H522 lung
[8] = test system: OVCAR-8 ovarian
[9] = test system: RXF 393 renal
[10] = test system: SK-MEL-2 melanoma
[11] = test system: TK-10 renal
[12] = test system: UACC-257 melanoma
[13] = test system: UACC-62 melanoma

Which results are given for `Cc1cc(Nc2ncc(Cl)c(Nc3ccccc3S(=O)(=O)C(C)C)n2)c(OC(C)C)cc1C1CCNCC1`?
GI50 [1]: 1770 nM; TGI [1]: 3170 nM; GI50 [2]: 1100 nM; TGI [2]: 2430 nM; GI50 [3]: 1560 nM; TGI [3]: 2920 nM; GI50 [4]: 202 nM; TGI [4]: 552 nM; GI50 [5]: 1640 nM; TGI [5]: 3000 nM; GI50 [6]: 978 nM; TGI [6]: 2150 nM; GI50 [7]: 1760 nM; TGI [7]: 3150 nM; GI50 [8]: 1550 nM; TGI [8]: 2900 nM; GI50 [9]: 1900 nM; TGI [9]: 3310 nM; GI50 [10]: 1020 nM; TGI [10]: 2190 nM; GI50 [11]: 1570 nM; TGI [11]: 2920 nM; GI50 [12]: 777 nM; TGI [12]: 1530 nM; GI50 [13]: 1040 nM; TGI [13]: 2320 nM
